Measurements published in the supplement of paper PMC10307832.

Experiments:
Experiment in all cases: relative viability (nuclei count vs DMSO), 5 days (fraction); higher = more cells survive
Linsitinib + OSI-027 = compound: C[C@]1(O)C[C@@H](c2nc(-c3ccc4ccc(-c5ccccc5)nc4c3)c3c(N)nccn32)C1 [Linsitinib] + COc1cccc2cc(-c3nc([C@H]4CC[C@H](C(=O)O)CC4)n4ncnc(N)c34)[nH]c12 [OSI-027] (partner 0.5 µM)
In short: (§1)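 Cells from lung cancer lines were seeded into 1536-well plates and, one day later, dosed by pin tool. Treatments were either a single drug or a fixed dose of an anchor drug with five library-drug doses (not always all listed) in √10 steps. After 5 days, nuclei were stained in a one-step fixation (final 0.05% Triton X-100, 1% formaldehyde, 1 ug/ml Hoechst) and counted on 4× images, and relative viability is the treated-to-vehicle nuclei ratio, as the median of duplicate plates.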

Ispinesib + Trametinib = compound: Cc1ccc(C(=O)N(CCCN)[C@@H](c2nc3cc(Cl)ccc3c(=O)n2Cc2ccccc2)C(C)C)cc1 [Ispinesib] + CC(=O)Nc1cccc(-n2c(=O)n(C3CC3)c(=O)c3c(Nc4ccc(I)cc4F)n(C)c(=O)c(C)c32)c1 [Trametinib] (partner 0.02 µM)
In short: as §1

Linsitinib + Decitabine = compound: C[C@]1(O)C[C@@H](c2nc(-c3ccc4ccc(-c5ccccc5)nc4c3)c3c(N)nccn32)C1 [Linsitinib] + Nc1ncn([C@H]2C[C@H](O)[C@@H](CO)O2)c(=O)n1 [Decitabine] (partner 2 µM)
In short: as §1

Linsitinib + Dasatinib = compound: C[C@]1(O)C[C@@H](c2nc(-c3ccc4ccc(-c5ccccc5)nc4c3)c3c(N)nccn32)C1 [Linsitinib] + Cc1nc(Nc2ncc(C(=O)Nc3c(C)cccc3Cl)s2)cc(N2CCN(CCO)CC2)n1 [Dasatinib] (partner 0.075 µM)
In short: as §1

Cell Line	relative viability (Linsitinib + OSI-027; first compound 0.01 µM)	relative viability (Linsitinib + OSI-027; first compound 0.03162 µM)	relative viability (Linsitinib + OSI-027; first compound 0.1 µM)	relative viability (Linsitinib + OSI-027; first compound 1 µM)	relative viability (Ispinesib + Trametinib; first compound 0.001 µM)	relative viability (Ispinesib + Trametinib; first compound 0.003162 µM)	relative viability (Ispinesib + Trametinib; first compound 0.01 µM)	relative viability (Ispinesib + Trametinib; first compound 0.03162 µM)	relative viability (Ispinesib + Trametinib; first compound 0.1 µM)	relative viability (Linsitinib + Decitabine; first compound 0.01 µM)	relative viability (Linsitinib + Decitabine; first compound 0.03162 µM)	relative viability (Linsitinib + Decitabine; first compound 0.1 µM)	relative viability (Linsitinib + Decitabine; first compound 0.3162 µM)	relative viability (Linsitinib + Decitabine; first compound 1 µM)	relative viability (Linsitinib + Dasatinib; first compound 0.01 µM)	relative viability (Linsitinib + Dasatinib; first compound 0.03162 µM)	relative viability (Linsitinib + Dasatinib; first compound 0.1 µM)	relative viability (Linsitinib + Dasatinib; first compound 1 µM)	relative viability (Linsitinib + OSI-027; first compound 0.3162 µM)	relative viability (Linsitinib + Dasatinib; first compound 0.3162 µM)
NCI-H522	0.729	0.798	0.695	0.574	0.814	0.879	0.913	0.788	0.646	0.657	0.773	0.614	0.688	0.587	0.829	1.03	0.902	0.86		
PC-3 [JPC-3]	0.709	0.79	0.664	0.463	0.717	0.83	0.689	0.664	0.375	0.822	0.902	0.91	0.77	0.814	1	0.912	1.06	0.98	0.651	0.991
EPLC-272H	0.262	0.296		0.257	0.302	0.277	0.306	0.225	0.206	0.316	0.375	0.389		0.344	0.359	0.407		0.261		
NCI-H1792		0.728	0.619	0.292	0.42	0.463	0.515	0.398	0.117	0.496	0.484	0.512	0.472	0.363		0.927	0.771	0.215	0.481	0.529
NCI-H2085	0.681	0.657	0.814	0.431	0.498	0.563	0.58	0.519	0.472	0.525	0.59	0.509	0.528	0.618	0.275	0.257	0.22	0.23	0.712	0.246
LK-2	0.243	0.242	0.154	0.168	0.742	0.819	0.801	0.751	0.516	0.221	0.407	0.232	0.187	0.185	0.281	0.328	0.212	0.197	0.167	0.228
NCI-H1395	0.571	0.637	0.612	0.545	1.13	1.1	1.06	0.682	0.409	0.691		0.777	0.695	0.702	0.425	0.372	0.399	0.43	0.622	0.441
ABC-1	0.502	0.447	0.504	0.217						1.02	1.17	1.22	0.995	0.842	0.574	0.469	0.504	0.448	0.38	0.541
RERF-LC-KJ	0.617	0.602	0.553	0.251	0.898	0.869	0.787	0.514	0.528	0.726	0.651	0.622	0.599	0.665	0.75	0.964	0.697	0.454	0.298	0.543
LU99A	0.32	0.314	0.299	0.24	0.514	0.579	0.577	0.335	0.352	0.924	0.881	0.81		0.917	0.553	0.52	0.539	0.289	0.245	0.334
NCI-H650	0.524	0.527	0.541	0.27	0.969	1.07	1.03	0.828	0.779	0.313	0.396	0.287		0.306	0.45	0.432	0.47	0.325	0.256	0.374
NCI-H2347	0.36	0.517	0.261	0.356	0.299	0.23	0.294	0.343	0.252	0.644	0.668	0.629	0.591	0.614	0.3	0.339	0.317	0.3		
HARA	0.505	0.502	0.637	0.232	0.727	0.634	0.816	1.14	0.234	0.518	0.533	0.526		0.678	0.278	0.213	0.294	0.204		
NCI-H2228	0.57	0.604	0.492	0.254	0.615	0.496	0.415	0.263	0.28						0.48	0.483	0.52	0.387	0.335	0.421
EKVX	0.706	0.723	0.687	0.607	0.321		0.361	0.603	0.218		0.37	0.329	0.348	0.324	0.603	0.625	0.532	0.5	0.467	0.513
HCC-827	0.769	0.836	0.821	0.771	0.595	0.516	0.542	0.57	0.59	0.165	0.427	0.287		0.34	0.398	0.389	0.311	0.423		0.597

Cell Line	relative viability (Linsitinib + OSI-027; first compound 0.01 µM)	relative viability (Linsitinib + OSI-027; first compound 0.03162 µM)	relative viability (Linsitinib + OSI-027; first compound 0.1 µM)	relative viability (Linsitinib + OSI-027; first compound 1 µM)	relative viability (Ispinesib + Trametinib; first compound 0.001 µM)	relative viability (Ispinesib + Trametinib; first compound 0.003162 µM)	relative viability (Ispinesib + Trametinib; first compound 0.01 µM)	relative viability (Ispinesib + Trametinib; first compound 0.03162 µM)	relative viability (Ispinesib + Trametinib; first compound 0.1 µM)	relative viability (Linsitinib + Decitabine; first compound 0.01 µM)	relative viability (Linsitinib + Decitabine; first compound 0.03162 µM)	relative viability (Linsitinib + Decitabine; first compound 0.1 µM)	relative viability (Linsitinib + Decitabine; first compound 0.3162 µM)	relative viability (Linsitinib + Decitabine; first compound 1 µM)	relative viability (Linsitinib + Dasatinib; first compound 0.01 µM)	relative viability (Linsitinib + Dasatinib; first compound 0.03162 µM)	relative viability (Linsitinib + Dasatinib; first compound 0.1 µM)	relative viability (Linsitinib + Dasatinib; first compound 1 µM)	relative viability (Linsitinib + OSI-027; first compound 0.3162 µM)	relative viability (Linsitinib + Dasatinib; first compound 0.3162 µM)
NCI-H1755	0.681	0.77	0.737	0.487	0.843	0.838	0.751	0.713	0.758	0.719	0.856	0.719	0.559	0.702	0.428	0.431	0.427	0.229	0.356	0.363
NCI-H661	0.732	0.651	0.652	0.516	0.625	0.616	0.567	0.274	0.277	0.545	0.676	0.536	0.492	0.535	0.899	0.815	0.946	0.768	0.6	0.722
NCI-H1944	0.427	0.474	0.393	0.217	0.431	0.408	0.36	0.383	0.334	0.426	0.53	0.422	0.398	0.341	0.224	0.237	0.196	0.162	0.315	0.236
NCI-H23	0.722	0.64	0.606	0.251	0.372	0.472	0.32	0.358	0.208	0.305	0.314	0.322	0.264	0.298	0.837	0.807	0.571	0.366	0.206	0.415
SW 900	0.565	0.593	0.481	0.352	0.914	0.947	1.02	0.924	0.326	0.474	0.537	0.466	0.374	0.388	0.537	0.739	0.85	0.322	0.397	0.319
NCI-H2342	0.521	0.608	0.608	0.551	0.892	0.819	0.896	0.797	0.722	0.765	0.78	0.732	0.688	0.75	0.307	0.306	0.306	0.298	0.53	0.353
HCC-366	1.03	0.999	0.888	0.235	0.386	0.428	0.403	0.411	0.0793	0.35	0.354	0.349	0.293	0.326	0.644	0.606	0.488	0.174	0.821	0.543
ChaGo-K-1	0.613	0.627	0.573	0.522	0.903	0.999	1.06	0.992	0.895	0.504	0.519	0.49		0.51	0.649	0.5	0.588	0.588	0.319	0.415
LCLC-97TM1	0.52	0.515	0.335	0.234	0.219	0.238	0.219	0.169	0.137	0.251	0.261	0.24	0.204	0.245	0.842	0.64	0.842	0.614	0.248	0.602
NCI-H1623	0.408	0.432	0.398	0.285											0.561	0.527	0.45	0.415		
HCC-44	0.503	0.41	0.465	0.232	1.06	1.05	1.09	1.07	1.11	0.922	0.977	0.919	0.552	0.746					0.181	
CAL-12T	0.625	0.688	0.679	0.297	0.353	0.315	0.28	0.294	0.215						0.362	0.359	0.485	0.273	0.351	0.178
A549										0.246	0.234	0.309	0.12	0.241						
NCI-H1563	0.695	0.786	0.714	0.63											0.47	0.485	0.384	0.378	0.87	0.812
NCI-H1648	0.26	0.265	0.264	0.245	0.47	0.559	0.479	0.583	0.496	0.468	0.445	0.428	0.377	0.46						
